The text below walks through data of publication PMC8918016 (ACS infectious diseases, 2021).

Where two headings read alike, the source gives them in different places.

One data set relates to M. tuberculosis H37Rv. Put plainly: M. tuberculosis growth inhibition assay. The following applies: read-out: Mtb IC90; concentration that inhibits 90% of growth, OD600, 5 days; ± standard error.
For data set [1] the following is noted: for Rabbit 1 concentration in lung tissue / Rabbit 2 concentration in lung tissue: in vivo; for amount formed on a per-site basis in lung tissue: lung concentration divided by number of equivalent adamantyl sites.
Another data set has as its system B. subtilis. Kind of data set: B. subtilis growth inhibition assay. The format is cell-based, Bacillus subtilis. The following applies: read-out: Bs IC50.
Another data set has as its system E. coli (K12). Kind of data set: E. coli growth inhibition assay. The format is cell-based, Escherichia coli. The following applies: read-out: Ec IC50.
Another data set relates to M. smegmatis. Kind of data set: M. smegmatis growth inhibition assay. The format is cell-based, Mycobacterium smegmatis. The following applies: read-out: Ms IC50, OD600, 48 h, ± standard error.
For data set [2] the following is noted: calculated, Pipeline Pilot program; cited from earlier work.
The conditions of data set [3]: rats; cited from earlier work.
The conditions of data set [4]: dogs; cited from earlier work.
A further data set deals with human CYP2C19. The following applies: 30 min incubation with CYP2C19; cited from earlier work.
The test system of another data set is human CYP2D6. The following applies: 30 min incubation with CYP2D6; cited from earlier work.
[5] abbreviates: growth inhibition, OD600, 12 h, ± standard error.

In general, IC90 refers to the point of the concentration-response curve where the effect stands at 90%. One may read the IC50 as the midpoint of a concentration-inhibition curve.

For `NC1C2CC3CC(C2)CC1C3` (stereo not drawn) [Compound 18, 2-aminoadamantane], the IC90 in the data set on M. tuberculosis H37Rv is above 25 µM. Moreover, the “Rabbit 1 concentration in lung tissue” value in data set [1] (female, New Zealand White) is 170(49) ng/g. In addition, in [1] (female, New Zealand White), the “Rabbit 2 concentration in lung tissue” value is reported as 270(27) ng/g. Moreover, the IC50 in the data set with B. subtilis (Bacillus subtilis, 12 h) was above 500 µM; with E. coli (K12) (Escherichia coli, 12 h), above 500 µM.

Turning to `CC(C)=CCC/C(C)=C/C(=O)O` [Compound 14, geranic acid], the concentration for an effect of 90% (IC90) in the data set with M. tuberculosis H37Rv was above 25 µM. In data set [1], the “Rabbit 1 concentration in lung tissue” value is recorded as “BLQ” and the “Rabbit 2 concentration in lung tissue” value was “BLQ”. Besides, the IC50 with B. subtilis (Bacillus subtilis, 12 h) was above 500 µM. The IC50 in the data set on E. coli (K12) (Escherichia coli, 12 h) is above 500 µM.

With `CC(C)=CCC/C(C)=C/CNCCNC1[C@H]2C[C@@H]3C[C@H](C2)C(O)[C@H]1C3` (stereo partly drawn) [Compound 24, (1R,3S,5S,7R)-4-((2-(((E)-3,7-Dimethylocta-2,6-dien-1-yl)-amino)ethyl)amino)adamantan-2-ol], the IC90 in the data set on M. tuberculosis H37Rv was determined as 6.2 ± 0.27 µM. In [1] (female, New Zealand White), the “Rabbit 1 concentration in lung tissue” value is listed as 820 (170) ng/g and the “Rabbit 2 concentration in lung tissue” value is on record as 2100 (680) ng/g. Also, in [1], the “amount formed on a per-site basis in lung tissue” value was ~ 1 μM. The IC50 in the data set with B. subtilis (Bacillus subtilis, 12 h) worked out at 166 ± 0.5 µM. In addition, the 50% inhibitory concentration (IC50) in the data set on E. coli (K12) (Escherichia coli, 12 h) is 158 ± 4.5 µM.

Regarding `CC(C)=CCC/C(C)=C/CN` [Compound 17, geranylamine], the IC90 in the data set with M. tuberculosis H37Rv was above 25 µM. Moreover, in data set [1], the “Rabbit 1 concentration in lung tissue” value is given as “BLQ”. For the same compound, in data set [1], the “Rabbit 2 concentration in lung tissue” value was “BLQ”. In addition, the IC50 in the data set with B. subtilis (setting [5]), in the data set on M. smegmatis and in the data set on E. coli (K12) (setting [5]) was above 500 µM throughout.

In the case of `CC(C)=CCC/C(C)=C/CNCCNC1C2CC3CC(C2)CC1C3` (stereo not drawn) [Compound 1, SQ109], the IC90 in the data set with M. tuberculosis H37Rv came out at 1 ± 0.05 µM. The “Rabbit 1 concentration in lung tissue” value in [1] (female, New Zealand White) is on record as 37000 (4600) ng/g. In addition, the “Rabbit 2 concentration in lung tissue” value in data set [1] (female, New Zealand White) is recorded as 45000 (21000) ng/g. Further, the IC50 in the data set on B. subtilis (Bacillus subtilis, 12 h) turned out to be 16 ± 0.14 µM; with E. coli (K12) (Escherichia coli, 12 h), 15 ± 0.26 µM. In [2], the “pKa (adamantylamine NH)” value is listed as 12.7. Also, the “pKa (geranylamine NH)” value in data set [2] is reported as 5.63. The “[14C-SQ109] half-life” value in data set [3] and in data set [4] was above 5 h each time. The SQ109 remaining with human CYP2C19 is 45%; in the data set with human CYP2D6, 0.8%.

For `CC(C)=CCC/C(C)=C/C=NO` [Compound 15a, geranial oxime], the IC90 in the data set on M. tuberculosis H37Rv was above 25 µM. Further, the “Rabbit 1 concentration in lung tissue” value in data set [1] is “BLQ”. The “Rabbit 2 concentration in lung tissue” value in data set [1] is on record as “BLQ”. Also, the IC50 with B. subtilis (setting [5]), with M. smegmatis and in the data set with E. coli (K12) (setting [5]) was above 500 µM throughout.

In the case of `O=C1C2CC3CC(C2)CC1C3` [Compound 19, 2-adamantanone], the IC90 with M. tuberculosis H37Rv is above 25 µM. The IC50 with B. subtilis (Bacillus subtilis, 12 h) is above 500 µM; in the data set with E. coli (K12) (Escherichia coli, 12 h) it was above 500 µM.

For `CC(C)=CCC/C(C)=C/CNCCNC1C2CC3CC1CC(C2)C3O` (stereo not drawn) [Compound 23, (1r,3r,5r,7r)-6-((2-(((E)-3,7-Dimethylocta-2,6-dien-1-yl)-amino)ethyl)amino)adamantan-2-ol], in the data set on M. tuberculosis H37Rv, the IC90 is above 25 µM. In addition, in data set [1], the “amount formed on a per-site basis in lung tissue” value came to 6.8 µM, the “Rabbit 1 concentration in lung tissue” value is recorded as 1200 (210) ng/g and the “Rabbit 2 concentration in lung tissue” value is 3500 (1200) ng/g. For the same compound, the IC50 with B. subtilis (setting [5]) was found to be 184 ± 4.5 µM. Further, in the data set with M. smegmatis, the IC50 is 68 ± 2.5 µM. Further, in the data set on E. coli (K12) (setting [5]), the IC50 came out at 52 ± 2.5 µM.

Turning to `ON=C1C2CC3CC(C2)CC1C3` [Compound 16, adamantan-2-one oxime], the IC90 in the data set with M. tuberculosis H37Rv was above 25 µM. Further, the “Rabbit 1 concentration in lung tissue” value in data set [1] was “BLQ”. Also, the “Rabbit 2 concentration in lung tissue” value in data set [1] is on record as “BLQ”. The IC50 in the data set on B. subtilis (Bacillus subtilis, 12 h) was above 500 µM; with E. coli (K12) (Escherichia coli, 12 h), above 500 µM.

Take `NCCNC1C2CC3CC(C2)CC1C3` (stereo not drawn) [Compound 7, N′-adamantylethylenediamine]: in the data set on M. tuberculosis H37Rv, the IC90 is above 25 µM. Besides, in data set [1], the “Rabbit 1 concentration in lung tissue” value is 5500 (360) ng/g. Further, the “Rabbit 2 concentration in lung tissue” value in data set [1] is on record as 7700 (2200) ng/g. Also, the IC50 in the data set on B. subtilis (setting [5]), in the data set on M. smegmatis and in the data set with E. coli (K12) (setting [5]) was above 500 µM in each case.

Take `CC(C)=CCC/C(C)=C/C=O` [Compound 13, geranial]: the IC90 in the data set on M. tuberculosis H37Rv was above 25 µM. Further, the “Rabbit 1 concentration in lung tissue” value in data set [1] is recorded as “BLQ”. Besides, the “Rabbit 2 concentration in lung tissue” value in data set [1] was “BLQ”. In addition, the IC50 in the data set on B. subtilis (setting [5]), in the data set on M. smegmatis and with E. coli (K12) (setting [5]) was above 500 µM each time.

Take `C/C(=C\CC/C(C)=C/CNCCNC1C2CC3CC(C2)CC1C3)CO` (stereo not drawn) [Compound 9, (2E,6E)-8-((2-(((1r,3r,5r,7r)-Adamantan-2-yl)amino)ethyl)-amino)-2,6-dimethylocta-2,6-dien-1-ol]: in the data set with M. tuberculosis H37Rv, the IC90 was above 24 µM. In addition, in data set [1], the “Rabbit 1 concentration in lung tissue” value is listed as 720 (47) ng/g. In addition, in data set [1], the “Rabbit 2 concentration in lung tissue” value is 850 (190) ng/g. Moreover, the IC50 was above 500 µM in the data set on B. subtilis (setting [5]), 55 ± 1.4 µM in the data set on M. smegmatis and 267 ± 4.3 µM with E. coli (K12) (setting [5]).

In the case of `C/C(=C\CNCCNC1C2CC3CC(C2)CC1C3)CCC(=O)C(C)C` (stereo not drawn) [Compound 12, (E)-8-((2-(((1r,3r,5r,7r)-adamantan-2-yl)amino)-ethyl)amino)-2,6-dimethyloct-6-en-3-one], the IC90 in the data set on M. tuberculosis H37Rv was 17 ± 4.5 µM. Besides, in [1], the “Rabbit 1 concentration in lung tissue” value is reported as 91 (20) ng/g. Also, the “Rabbit 2 concentration in lung tissue” value in data set [1] was 220 (110) ng/g. Further, the IC50 worked out at 176 ± 5.1 µM in the data set with B. subtilis (setting [5]), 22 ± 1.5 µM in the data set on M. smegmatis and 57 ± 2.3 µM with E. coli (K12) (setting [5]).

On to `CC(C)=CCC/C(C)=C/CNCCN` [Compound 20, geranylethylenediamine], for which, in the data set on M. tuberculosis H37Rv, the IC90 is above 25 µM. Moreover, in [1], the “Rabbit 1 concentration in lung tissue” value is recorded as 310(14) ng/g. Also, the “Rabbit 2 concentration in lung tissue” value in data set [1] was 330 (54) ng/g. For the same compound, the IC50 in the data set on B. subtilis (setting [5]), in the data set on M. smegmatis and in the data set on E. coli (K12) (setting [5]) was above 500 µM each time.
